Reference: patent US20110092445A1, “Amyloid ß peptide analogues, oligomers thereof, processes for preparing and composi-tions comprising said analogues or oligomers, and their uses” (Abbott Laboratories, priority 2008, published 2011)
Bridges are numbered along the chain shown (N, C = ends). Where no end group is shown, it is not given here.

How the values were obtained:
[1] = test system: Aβ globulomer-specific antibody 7C6; assay: Dot blot analysis with monoclonal antibody 7C6; type: binding, murine; conditions: FIG. 8A
Source text: (§1) 1. (14C, 37C) N-Met Aβ(1-42) oligomer of example 4a 2. Thermolysin truncated (14C, 37C) N-Met Aβ(1-42) oligomer of example 5a 3. (15C, 36C) N-Met Aβ(1-42) oligomer of example 4b 4. Thermolysin truncated (15C, 36C) N-Met Aβ(1-42) oligomer of example 5b 5. (16C, 35C) N-Met Aβ(1-42) oligomer of example 4c 6. Thermolysin truncated (16C, 35C) N-Met Aβ(1-42) oligomer of example 5c 7. (17C, 34C) N-Met Aβ(1-42) oligomer of example 4d 8) Thermolysin truncated (17C, 34C) N-Met Aβ(1-42) oligomer of example 5d 9. (18C, 33C) N-Met Aβ(1-42) oligomer of example 4e 10. Thermolysin truncated (18C, 33C) N-Met Aβ(1-42) oligomer of example 5e 11. (19C, 32C) N-Met Aβ(1-42) oligomer of example 4f 12. Thermolysin truncated (19C, 32C) N-Met Aβ(1-42) oligomer of example 5f 13. (20C, 31C) N-Met Aβ(1-42) oligomer of example 4g 14. Thermolysin truncated (20C, 31C) N-Met Aβ(1-42) oligomer of example 5g 15. (21C, 30C) N-Met Aβ(1-42) oligomer of example 4h 16. Thermolysin truncated (21C, 30C) N-Met Aβ(1-42) oligomer of example 5h 17. (22C, 29C) N-Met Aβ(1-42) oligomer of example 4i 18. Thermolysin truncated (22C, 29C) N-Met Aβ(1-42) oligomer of example 5i 19. Aβ(1-42) globulomer of example 4j 20. Aβ(1-42) thermolysin truncated globulomer of example 5j
(§2) • Serial dilution of Aβ antigens in columns 1-20 in 20 mM NaH2PO4, 140 mM NaCl, pH 7.4+0.2 mg/ml BSA • 1) 10 pmol/μl • 2) 1 pmol/μl • 3) 0.1 pmol/μl • 4) 0.01 pmol/μl • 5) 0.001 pmol/μl
(§3) • TBS • 25 mM Tris/HCl-buffer pH 7.5 • +150 mM NaCl • TTBS • 25 mM Tris/HCl-buffer pH 7.5 • +150 mM NaCl • +0.05% Tween 20 • PBS+0.2 mg/ml BSA • 20 mM NaH2PO4 buffer pH 7.4 • +140 mM NaCl • +0.2 mg/ml BSA
(§4) • Either Rabbit sera samples or mouse monoclonal antibodies were used as Antibody solution I and prepared as in the following: • Rabbit sera samples (1:200 diluted in 20 ml 1% low fat milk in TBS) • Mouse monoclonal antibodies (diluted to 0.2 μg/ml in 20 ml 1% low fat milk in TBS)
(§5) • In the case Antibody solution I was Rabbit sera samples then Antibody solution II was Anti-Rabbit-AP. […]

[2] = test system: polyclonal rabbit serum 5599; assay: Dot blot analysis with rabbit polyclonal antibody 5599; type: binding; conditions: FIG. 8B; serum shows high general background
Source text: as §1, §2, §3, §4, §5

[3] = test system: Aβ globulomer epitope specific antibody 7C6; assay: Immunoprecipitation with 7C6-Dynabeads and SELDI-MS detection; type: binding, murine
Protocol: (§6) A: Activation of Dynabeads with Monoclonal Mouse Antibodies • The stock-suspension of dynabeads (Dynabeads M-280 Sheep anti-Mouse IgG, Invitrogen; Cat. no.: 112.02) was shaken carefully to prevent foaming. • 1 mL was aseptically removed and transferred to a 1.5 mL reaction vial. • The dynabeads were washed 3 times 5 min with 1 mL immunoprecipitation (IP)-wash buffer (IP-wash-buffer: PBS (20 mM NaH2PO4, 140 mM NaCl, pH 7.4), 0.1% BSA). During the washing procedure the supernatant was carefully removed while the dynabeads were immobilized at the side of the reaction vial with a magnetic separator stand (MSS). • The washed dynabeads were incubated with 40 μg Aβ antibody in 1 mL PBS, 0.1% BSA • The activation was carried out by overnight incubation under shaking at 4° C. • The activated dynabeads were washed 4 times 30 min (again using the MSS) with 1 mL IP-wash buffer (PBS (20 mM NaH2PO4, 140 mM NaCl, pH 7.4), 0.1% BSA). • The activated dynabeads were resuspended with 1 mL PBS, 0.1% BSA, 0.02% NaAzide; vortexed and centrifuged briefly. • The antibody activated dynabeads were stored at 4° C. until further use. […]

[4] = test system: Aβ globulomer epitope specific antibody 10F11; assay: Immunoprecipitation with 10F11-Dynabeads and SELDI-MS detection; type: binding, murine; conditions: FIG. 10A/10B; isotype controls IgG2a, IgG2b
Protocol: as §6

[5] = test system: Alzheimer Disease transgenic mice; conditions: active immunization, cited from earlier work

Row | Substance | recognition by Aβ globulomer-specific antibody 7C6 in dot blot [1] | recognition by polyclonal rabbit serum 5599 in dot blot [2] | also measured
1 | Aβ(1-42) globulomer [example 4j] | do not detect | do not detect | –
2 | Disulfide-stabilized (17C, 34C) ARO 6-35)-amide oligomer (KCVFFAEDVGSNKGAIIGCM-NH2; disulfide 2-19; also: oligomer; UniProt P05067 687-706, looked up, variant L17C L34C) [example 4p] | – | – | recognition by 7C6 (immunoprecipitation, SELDI-MS) ([3]; FIG. 10A/10B, isotype controls IgG2a, IgG2b): recognized; presence of the Aβ globulomer epitope (conclusion from immunoprecipitation) ([3]; immunoprecipitation with 7C6 and 10F11): contained the Aβ globulomer epitope; recognition by 10F11 (immunoprecipitation, SELDI-MS) [4]: recognized
3 | Thermolysin truncation of disulfide-stabilized (15C, 36C) N-Met Aβ(1-42) oligomer [example 5b] | only recognized by the polyclonal rabbit serum 5599 | recognized by the polyclonal rabbit serum 5599 | –
4 | Aβ(20-42) truncated globulomer: obtained by subjecting an Aβ(1-42) globulomer to thermolysin proteolysis (FAEDVGSNKGAIIGLMVGGVVIA; also: truncated globulomer) | – | – | reversal of deficits in novel object recognition task ([5]; AD transgenic mouse models): proven to reverse deficits in novel object recognition task; reversing cognitive defects in Alzheimer Disease transgenic mice [5]: effective in reversing cognitive defects
5 | Thermolysin truncation of Aβ(1-42) globulomer [example 5j] | comparable recognition | comparable recognition | –
